Reference: patent US11384078B2, “5,6-fused-bicyclic compounds and compositions for the treatment of parasitic diseases” (NOVARTIS AG, priority 2017, dated 2022)
Like-named read-outs stand apart in the source and are kept apart here.

What was measured:
Type in all cases: cell-based
[1] = test system: Trypanosoma brucei brucei (Lister 427) strain; assay: Assay for growth inhibition against Trypanosoma brucei brucei (Cell TiterGlo ATP luminescence); conditions: Trypanosoma brucei, T. brucei brucei (Lister 427); read-out: T. Brucei (HAT) EC50
Method in brief: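 Growth read-out is cellular ATP by CellTiter-Glo luminescence, measured 30 min after reagent addition, following 2-day incubation at 37 °C in CO2. Parasites (10,000/mL, HMI-9 plus 10% FBS and 10% serum plus) faced 10 threefold dilutions in duplicate; IC50 taken as 50% growth inhibition versus untreated.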

[2] = test system: L. donovani HU3 strain in mouse peritoneal macrophages; assay: Assay for inhibition of parasitemia of Leishmania donovani in mouse macrophages (SYBR Green nuclei count, high-content imaging); conditions: Leishmania donovani, Peritoneal macrophage, read-out: L. donovani in Mouse Macrophages EC50
Method in brief: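 Parasite numbers were counted from SYBR Green-stained nuclei imaged by high-content microscopy after paraformaldehyde fixation and Triton permeabilization. Before this, compound was applied for 5 days at 37° C to BALB/c peritoneal macrophages (2×10^4/well) that had been exposed 24 h to 4×10^5 L. donovani HU3 amastigotes harvested from infected mouse spleens.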

[3] = test system: Trypanosoma cruzi amastigotes cultured in 3T3 fibroblast cells; assay: Assay for growth inhibition of kinetoplastid parasite Trypanosoma cruzi (beta-galactosidase Tulahuen strain, CPRG readout); conditions: Trypanosoma cruzi, T. cruzi amastigotes in 3T3 fibroblast cells, read-out: Buckner infectious T. cruzi EC50
Method in brief: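 3T3 fibroblasts (1,000 cells/well) plated overnight, treated with compound in DMSO, then infected with 10,000 Lac-Z-expressing Tulahuen trypomastigotes. After 6 days, 0.6 mM CPRG with 0.6% NP-40 added for 2 h at room temperature; absorbance gives relative intracellular amastigote numbers. Benznidazole and nifurtimox serve as positive controls.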

[4] = test system: Leishmania donovani axenic amastigote; assay: In vitro assay for growth inhibition of Leishmania donovani axenic amastigote (Cell TiterGlo luminescence); conditions: Leishmania donovani, L. donovani axenic amastigotes in vitro; read-out: L. donovani amastigotes EC50
Method in brief: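 Compound-treated wells received 9600 axenic amastigotes in RPMI 1640-based medium at pH 5.5 (37 °C, 5% CO2). Growth measured as ATP luminescence (CellTiter-Glo) after 2-day incubation; DMSO and reference compounds served as controls.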

[5] = L. donovani in mouse peritoneal macrophages

SMILES	EC50 [1] [nM]	EC50 [2, 5] [nM]	EC50 ([3]; Fibroblast) [nM]	EC50 [4] [nM]	EC50 [2] [nM]	EC50 [3] [nM]
Cc1nc(C(=O)Nc2ccc(F)c(-n3cc4cc(C(C)C)cnc4n3)c2)oc1C [Compound 81, N-{4-fluoro-3-[5-(propan-2-yl)-2H-pyrazolo[3,4-b]pyridin-2-yl]phenyl}-4,5-dimethyl-1,3-oxazole-2-carboxamide]	360	3600	420	3160	–	–
O=C(Nc1ccc(F)c(-n2cc3cc(Br)cnc3n2)c1)c1ccco1 [Compound 130, N-(3-(5-bromo-2H-pyrazolo[3,4-b]pyridin-2-yl)-4-fluorophenyl)furan-2-carboxamide]	40	160	36	190	–	–
O=C(Nc1ccc(F)c(-n2cc3cc(N4CC5(CCOC5)C4)cnc3n2)c1)N1CC2(CCOC2)C1 [Compound 246, N-[4-fluoro-3-(5-{6-oxa-2-azaspiro[3.4]octan-2-yl}-2H-pyrazolo[3,4-b]pyridin-2-yl)phenyl}-6-oxa-2-azaspiro[3.4]octane-2-carboxamide]	396	379	2840	535	–	–
CC(C)c1cnc2nn(-c3cc(NC(=O)OCCC(F)(F)F)ccc3F)cc2c1 [Compound 174, 3,3,3-trifluoropropyl N-{4-fluoro-3-[5-(propan-2-yl)-2H-pyrazolo[3,4-b]pyridin-2-yl]phenyl}carbamate]	1000	2700	720	2000	–	–
O=C(Nc1ccnc(-n2cc3cc(-c4ccccn4)cnc3n2)c1)N1CCC1 [Compound 341, N-{2-[5-(pyridin-2-yl)-2H-pyrazolo[3,4-b]pyridin-2-yl]pyridin-4-yl}azetidine-1-carboxamide]	9	33	10	6	–	–
O=C(Nc1ccc(F)c(-n2cc3cc(N4CCC5(CC4)COC5)cnc3n2)c1)N1CC(F)C1 [Compound 248, 3-fluoro-N-[4-fluoro-3-(5-{2-oxa-7-azaspiro[3.5]nonan-7-yl}-2H-pyrazolo[3,4-b]pyridin-2-yl)phenyl]azetidine-1-carboxamide]	5	8	11	117	–	–
O=C(Nc1ccc(F)c(-n2cc3cc(CC4CCC4)cnc3n2)c1)N1CCC1 [Compound 97, N-{3-[5-(cyclobutylmethyl)-2H-pyrazolo[3,4-b]pyridin-2-yl]-4-fluorophenyl}azetidine-1-carboxamide]	< 23	440	8.8	12	–	–
O=C(Nc1ccc(F)c(-n2cc3cc(Br)cnc3n2)c1)N1CC(F)C1 [Compound 126, N-(3-(5-bromo-2H-pyrazolo[3,4-b]pyridin-2-yl)-4-fluorophenyl)-3-fluoroazetidine-1-carboxamide]	< 23	–	–	24	14	14
O=C(Nc1cccc(-n2cc3cc(N4CC5(CC5)C4)cnc3n2)c1)N1CCC1 [Compound 287, N-[3-(5-{5-azaspiro[2.3]hexan-5-yl}-2H-pyrazolo[3,4-b]pyridin-2-yl)phenyl]azetidine-1-carboxamide]	10	30	21	21	–	–
O=C(Nc1ccc(F)c(-n2cc3cc(N4CC(F)(F)C4)cnc3n2)c1)N1CC[C@@H](F)C1 [Compound 300, (3R)-N-{3-[5-(3,3-difluoroazetidin-1-yl)-2H-pyrazolo[3,4-b]pyridin-2-yl]-4-fluorophenyl}-3-fluoropyrrolidine-1-carboxamide]	3	6	4	22	–	–
O=C(Nc1ccc(F)c(-n2cc3cc(-c4ccccn4)cnc3n2)c1)N1CC[C@@H](F)C1 [Compound 53, (3R)-3-fluoro-N-{4-fluoro-3-[5-(pyridin-2-yl)-2H-pyrazolo[3,4-b]pyridin-2-yl]phenyl}pyrrolidine-1-carboxamide]	< 23	2	1	1.3	–	–
O=C(Nc1ccc(F)c(-n2cc3cc(N4CCC(C5COC5)CC4)cnc3n2)c1)N1CC(F)C1 [Compound 238, 3-fluoro-N-(4-fluoro-3-{5-[4-(oxetan-3-yl)piperidin-1-yl]-2H-pyrazolo[3,4-b]pyridin-2-yl}phenyl)azetidine-1-carboxamide]	5	32	33	25	–	–
Cc1ncc(C(=O)Nc2ccc(F)c(-n3cc4cc(C(C)C)cnc4n3)c2)o1 [Compound 83, N-{4-fluoro-3-[5-(propan-2-yl)-2H-pyrazolo[3,4-b]pyridin-2-yl]phenyl}-2-methyl-1,3-oxazole-5-carboxamide]	< 23	7	7.3	14	–	–
O=C(Nc1ccc(F)c(-n2cc3cc(-c4ncccc4F)cnc3n2)c1)N1CC(F)(F)C1 [Compound 309, 3,3-difluoro-N-{4-fluoro-3-[5-(3-fluoropyridin-2-yl)-2H-pyrazolo[3,4-b]pyridin-2-yl]phenyl}azetidine-1-carboxamide]	5	2	1	1	–	–
O=C(Nc1ccc(F)c(-n2cc3cc(N4CCC4)cnc3n2)c1)N1CC(F)C1 [Compound 147, N-{3-[5-(azetidin-1-yl)-2H-pyrazolo[3,4-b]pyridin-2-yl]-4-fluorophenyl}-3-fluoroazetidine-1-carboxamide]	< 23	26	4.8	6.1	–	–
CC(C)c1cnc2nn(-c3cc(NC(=O)c4nc(Cl)ccc4F)ccc3F)cc2c1 [Compound 86, 6-chloro-3-fluoro-N-{4-fluoro-3-[5-(propan-2-yl)-2H-pyrazolo[3,4-b]pyridin-2-yl]phenyl}pyridine-2-carboxamide]	< 23	120	14	130	–	–
O=C(Nc1ccc(F)c(-n2cc3cc(N4CC5(CSC5)C4)cnc3n2)c1)N1CC(F)C1 [Compound 239, 3-fluoro-N-[4-fluoro-3-(5-{2-thia-6-azaspiro[3.3]heptan-6-yl}-2H-pyrazolo[3,4-b]pyridin-2-yl)phenyl}azetidine-1-carboxamide]	5	9	10	1760	–	–
Cc1nc(C)c(C(=O)Nc2ccc(F)c(-n3cc4cc(N5CCCC5)cnc4n3)c2)o1 [Compound 157, N-{4-fluoro-3-[5-(pyrrolidin-1-yl)-2H-pyrazolo[3,4-b]pyridin-2-yl]phenyl}-2,4-dimethyl-1,3-oxazole-5-carboxamide]	< 23	18	13	25	–	–
CNc1cnc2nn(-c3cc(NC(=O)c4oc(C)nc4C)ccc3F)cc2c1 [Compound 153, N-{4-fluoro-3-[5-(methylamino)-2H-pyrazolo[3,4-b]pyridin-2-yl]phenyl}-2,4-dimethyl-1,3-oxazole-5-carboxamide]	500	27000	150	210	–	–
CN(C)c1cnc2nn(-c3cc(NC(=O)N4CC[C@@H](F)C4)ccc3F)cc2c1 [Compound 133, (3R)-N-{3-[5-(dimethylamino)-2H-pyrazolo[3,4-b]pyridin-2-yl]-4-fluorophenyl}-3-fluoropyrrolidine-1-carboxamide]	< 23	8	5.9	12	–	–
[2H]C([2H])([2H])N(c1cnc2nn(-c3cc(NC(=O)N4CC[C@@H](F)C4)ccc3F)cc2c1)C([2H])([2H])[2H] [Compound 308, (3R)-N-(3-{5-[bis(^2H3)methylamino]-2H-pyrazolo[3,4-b]pyridin-2-yl}-4-fluorophenyl)-3-fluoropyrrolidine-1-carboxamide]	5	2	4	568	–	–
O=C(Nc1ccc(F)c(-n2cc3cc(N4CCCC4)cnc3n2)c1)N1CC(F)C1 [Compound 131, 3-fluoro-N-{4-fluoro-3-[5-(pyrrolidin-1-yl)-2H-pyrazolo[3,4-b]pyridin-2-yl]phenyl}azetidine-1-carboxamide]	< 23	5.1	5.2	7	–	–
O=C(Nc1ccc(F)c(-n2cc3cc(-n4ccnc4)cnc3n2)c1)N1CC(F)C1 [Compound 323, 3-fluoro-N-{4-fluoro-3-[5-(1H-imidazol-1-yl)-2H-pyrazolo[3,4-b]pyridin-2-yl]phenyl}azetidine-1-carboxamide]	15	113	62	12	–	–
O=C(Nc1ccc(F)c(-n2cc3cc(N4CCC4)cnc3n2)c1)N1CCC1 [Compound 10, N-(3-(5-(azetidin-1-yl)-2H-pyrazolo[3,4-b]pyridin-2-yl)-4-fluorophenyl)azetidine-1-carboxamide]	< 23	–	–	16	7.8	4.8
